PubChem BioAssay AID330 (DTP/NCI, 2004)
Inconclusive results and toxic doses are left out. The calls were made as follows: active = survival T/C of 150% or more; inactive = T/C below 125% in these data.

Test system: P388 leukemia ip, CD2F1 mice, survival T/C
Assay: NCI In Vivo Anticancer Drug Screen. Data for tumor model P388 Leukemia (intraperitoneal) in CD2F1 (CDF1) mice
Settings: endpoint: median survival time, higher = longer survival
Method in brief: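 Mice carrying the transplanted tumor received test compound or vehicle. Survival was recorded in each group, and the value is the treated-group measurement divided by that of the vehicle-treated control group.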

[1] = dose: 60.0 mg/kg/injection, schedule: Q01DX005 (ip), vehicle: saline with Tween-80
[2] = dose: 120.0 mg/kg/injection, schedule: Q01DX005 (ip), vehicle: saline with Tween-80
[3] = dose: 240.0 mg/kg/injection, schedule: Q01DX005 (ip), vehicle: saline with Tween-80
[4] = dose: 50.0 mg/kg/injection, schedule: Q01DX009 (ip), vehicle: saline with Tween-80
[5] = dose: 100.0 mg/kg/injection, schedule: Q01DX009 (ip), vehicle: saline with Tween-80
[6] = dose: 200.0 mg/kg/injection, schedule: Q01DX009 (ip), vehicle: saline with Tween-80
[7] = dose: 100.0 mg/kg/injection, schedule: Q01DX001 (ip), vehicle: saline with Tween-80
[8] = dose: 100.0 mg/kg/injection, schedule: Q04DX003 (ip), vehicle: saline with Tween-80
[9] = dose: 200.0 mg/kg/injection, schedule: Q01DX001 (ip), vehicle: saline with Tween-80
[10] = dose: 400.0 mg/kg/injection, schedule: Q01DX001 (ip), vehicle: saline with Tween-80
[11] = dose: 60.0 mg/kg/injection, schedule: Q01DX005 (ip), vehicle: saline
[12] = dose: 120.0 mg/kg/injection, schedule: Q01DX005 (ip), vehicle: saline
[13] = dose: 240.0 mg/kg/injection, schedule: Q01DX005 (ip), vehicle: saline
[14] = dose: 200.0 mg/kg/injection, schedule: Q01DX005 (ip), vehicle: saline with Tween-80
[15] = dose: 12.5 mg/kg/injection, schedule: Q01DX009 (ip), vehicle: Klucel (hydroxypropylcellulose) (HPC)
[16] = dose: 25.0 mg/kg/injection, schedule: Q01DX009 (ip), vehicle: Klucel (hydroxypropylcellulose) (HPC)
[17] = dose: 50.0 mg/kg/injection, schedule: Q01DX005 (ip), vehicle: Klucel (hydroxypropylcellulose) (HPC)
[18] = dose: 100.0 mg/kg/injection, schedule: Q01DX005 (ip), vehicle: Klucel (hydroxypropylcellulose) (HPC)
[19] = dose: 50.0 mg/kg/injection, schedule: Q01DX009 (ip), vehicle: saline
[20] = dose: 100.0 mg/kg/injection, schedule: Q01DX009 (ip), vehicle: saline
[21] = dose: 100.0 mg/kg/injection, schedule: Q01DX009 (ip), vehicle: suspension in saline
[22] = dose: 200.0 mg/kg/injection, schedule: Q01DX009 (ip), vehicle: suspension in saline
[23] = dose: 200.0 mg/kg/injection, schedule: Q01DX009 (ip), vehicle: saline

Measured: T/C

CN(C)C(n1cc2c(c1)-c1ccc(Cl)cc1C(c1ccccc1F)=NC2)n1cc2c(c1)-c1ccc(Cl)cc1C(c1ccccc1F)=NC2
inactive: [1] 93 % of control | [2] 92 % of control | [3] 91 % of control

CC(C)(C)c1cc2c(c(C(C)(C)C)c1)OP(F)(c1ccccc1)(c1ccccc1)N2
inactive: [4] 89 % of control | [5] 95 % of control | [6] 98 % of control

CN([NH-])C(=S)[S-].CN([NH-])C(=S)[S-].[Ni]
inactive: dose: 50.0 mg/kg/injection, schedule: Q04DX003 (ip), vehicle: Klucel (hydroxypropylcellulose) (HPC) 100 % of control | dose: 50.0 mg/kg/injection, schedule: Q04DX003 (ip), vehicle: saline with Tween-80 100 % of control | [7] 120 % of control | [8] 100 % of control | [9] 101 % of control | dose: 200.0 mg/kg/injection, schedule: Q04DX003 (ip), vehicle: Klucel (hydroxypropylcellulose) (HPC) 117 % of control | [10] 123 % of control

Cc1[nH]c2ccccc2c1CC[n+]1cccc(C#N)c1
inactive: dose: 3.12 mg/kg/injection, schedule: Q01DX005 (ip), vehicle: Klucel (hydroxypropylcellulose) (HPC) 108 % of control | dose: 6.25 mg/kg/injection, schedule: Q01DX005 (ip), vehicle: Klucel (hydroxypropylcellulose) (HPC) 100 % of control | dose: 12.5 mg/kg/injection, schedule: Q01DX005 (ip), vehicle: Klucel (hydroxypropylcellulose) (HPC) 103 % of control

Cc1ccc(C(=O)Nc2c(C)cccc2C)cc1
inactive: [1] 98 % of control | [2] 92 % of control

CCc1c(-c2ccccc2)nc(N)nc1-c1nc(N)nc(-c2ccccc2)c1CC
inactive: [11] 98 % of control | [12] 100 % of control

CSc1nnc(CCC(=O)Nc2c(C)cccc2C(C)(C)C)o1
inactive: [1] 104 % of control | [2] 99 % of control | [3] 91 % of control

COCc1cn[nH]n1
inactive: [11] 100 % of control | [12] 99 % of control | [13] 104 % of control

COP(=O)(CC(=O)CCCCCO)OC
inactive: [11] 114 % of control | [12] 107 % of control | [13] 107 % of control

CCCCN=C(N)N/N=C(\C)c1ccc(-c2ccccc2)cc1
inactive: dose: 1.25 mg/kg/injection, schedule: Q04DX002 (ip), vehicle: saline with Tween-80 102 % of control | dose: 2.5 mg/kg/injection, schedule: Q04DX002 (ip), vehicle: saline with Tween-80 104 % of control | dose: 5.0 mg/kg/injection, schedule: Q04DX002 (ip), vehicle: saline with Tween-80 104 % of control

Clc1ccc2c(NCCN3CCCCCC3)nc(C(Cl)(Cl)Cl)nc2c1
inactive: [4] 100 % of control | [5] 104 % of control | [6] 100 % of control

C=CC(N)[Si](CC)(CC)CC (configuration not stated)
inactive: [1] 106 % of control | [2] 101 % of control

CC1C[C@@H]2[C@H]([C@@H](O)C[C@@]3(C)[C@H]2CC[C@]3(O)C(=O)CF)[C@@]2(C)CCC(=O)C=C12 (some centres not stated)
inactive: [5] 100 % of control | [8] 109 % of control | [6] 95 % of control | dose: 200.0 mg/kg/injection, schedule: Q04DX003 (ip), vehicle: saline with Tween-80 109 % of control | dose: 400.0 mg/kg/injection, schedule: Q04DX003 (ip), vehicle: saline with Tween-80 100 % of control

CSc1nc(SC)c2c(C)cn(COCCOC(=O)c3ccccc3)c2n1
inactive: [7] 104 % of control | [9] 100 % of control | [10] 91 % of control

CCCCC(C(=O)OCC)/C(C)=N\NC(N)=S (configuration not stated)
inactive: dose: 60.0 mg/kg/injection, schedule: Q01DX005 (ip), vehicle: Klucel (hydroxypropylcellulose) (HPC) 100 % of control | dose: 120.0 mg/kg/injection, schedule: Q01DX005 (ip), vehicle: Klucel (hydroxypropylcellulose) (HPC) 99 % of control | dose: 240.0 mg/kg/injection, schedule: Q01DX005 (ip), vehicle: Klucel (hydroxypropylcellulose) (HPC) 98 % of control

O=C(O)CC(NC(=O)c1ccccc1)C(=O)O (configuration not stated)
inactive: dose: 50.0 mg/kg/injection, schedule: Q01DX005 (ip), vehicle: saline with Tween-80 96 % of control | dose: 100.0 mg/kg/injection, schedule: Q01DX005 (ip), vehicle: saline with Tween-80 102 % of control | [14] 92 % of control

O=S(=O)(O)c1ccc(OCCCCCCCCCCOc2ccc(S(=O)(=O)O)cc2)cc1
inactive: [11] 105 % of control | [12] 102 % of control | [13] 98 % of control

CCN(CC)Cc1c[nH]c2ccccc12
inactive: [15] 102 % of control | [16] 103 % of control | dose: 50.0 mg/kg/injection, schedule: Q01DX009 (ip), vehicle: Klucel (hydroxypropylcellulose) (HPC) 97 % of control

CN(C)C1=NC(NC2CCCCC2)(N(C)C)OC(N(C)C)=N1 (configuration not stated)
inactive: dose: 25.0 mg/kg/injection, schedule: Q01DX005 (ip), vehicle: Klucel (hydroxypropylcellulose) (HPC) 105 % of control | [17] 96 % of control | [18] 100 % of control

CCC(=O)n1nc(Nc2ccccc2)c(C(=O)OC)c1C
inactive: dose: 6.25 mg/kg/injection, schedule: Q01DX005 (ip), vehicle: saline with Tween-80 99 % of control | dose: 12.5 mg/kg/injection, schedule: Q01DX005 (ip), vehicle: saline with Tween-80 94 % of control | dose: 25.0 mg/kg/injection, schedule: Q01DX005 (ip), vehicle: saline with Tween-80 94 % of control | [14] 86 % of control

CSC(=Nc1nc2ccc([N+](=O)[O-])cc2s1)SC
inactive: dose: 6.25 mg/kg/injection, schedule: Q01DX009 (ip), vehicle: Klucel (hydroxypropylcellulose) (HPC) 101 % of control | [15] 103 % of control | [16] 103 % of control

CN(C)P1(N(C)C)=NP(N(C)C)(N(C)C)=NP(N(C)C)(N(C)C)=N1
inactive: dose: 12.5 mg/kg/injection, schedule: Q01DX009 (ip), vehicle: saline 99 % of control | dose: 25.0 mg/kg/injection, schedule: Q01DX009 (ip), vehicle: saline 89 % of control | dose: 25.0 mg/kg/injection, schedule: Q04DX003 (ip), vehicle: saline 99 % of control | [19] 90 % of control | dose: 50.0 mg/kg/injection, schedule: Q04DX003 (ip), vehicle: saline 100 % of control | [20] 96 % of control | dose: 100.0 mg/kg/injection, schedule: Q04DX003 (ip), vehicle: saline 100 % of control

NC1=NC(=O)C(N=O)C(=O)N1 (configuration not stated)
inactive: dose: 100.0 mg/kg/injection, schedule: Q04DX002 (ip), vehicle: saline with Tween-80 99 % of control | dose: 200.0 mg/kg/injection, schedule: Q04DX002 (ip), vehicle: saline with Tween-80 107 % of control | dose: 400.0 mg/kg/injection, schedule: Q04DX002 (ip), vehicle: saline with Tween-80 106 % of control

Nc1c(Cl)[nH]cnc1=S
inactive: [21] 106 % of control | [22] 105 % of control | dose: 400.0 mg/kg/injection, schedule: Q01DX009 (ip), vehicle: suspension in saline 99 % of control

OCNC(=S)c1c(Cl)cccc1Cl
inactive: dose: 25.0 mg/kg/injection, schedule: Q01DX009 (ip), vehicle: saline with Tween-80 111 % of control | [4] 111 % of control | [5] 109 % of control | [6] 100 % of control

Cc1ccc(S(=O)(=O)SC(C)(C)C)cc1
inactive: [17] 112 % of control | [18] 112 % of control | dose: 200.0 mg/kg/injection, schedule: Q01DX005 (ip), vehicle: Klucel (hydroxypropylcellulose) (HPC) 112 % of control

O=[N+]([O-])c1cnc(/C=[N+](\[O-])C2CCCCC2)n1CCO
inactive: [19] 98 % of control | [20] 100 % of control | [23] 102 % of control

COC(=O)/C=C1/Nc2ccc(Cl)cc2C(=O)NC1=O
inactive: [1] 95 % of control | [2] 93 % of control | [3] 93 % of control

COc1ccc2c(C)cc(=O)oc2c1OCC(O)CN1CCOCC1 (configuration not stated)
inactive: [11] 110 % of control | [12] 104 % of control | [13] 103 % of control

COc1cccc(/C=C/c2ccnnc2)c1OC
inactive: [19] 104 % of control | [20] 108 % of control | [23] 100 % of control

COc1ccc(CSC(=S)Nc2ccc(F)c(F)c2)cc1
inactive: dose: 50.0 mg/kg/injection, schedule: Q01DX009 (ip), vehicle: suspension in saline 108 % of control | [21] 106 % of control | [22] 99 % of control
